How the values were obtained:
[1] = target: B-Raf V600E (Homo sapiens, UniProt P15056, V600E); assay: Kinase activity assay, B-Raf V600E; format: biochemical; conditions: read-out: activity toward kinase B-Raf V600E, IC50
[2] = target: Fms (Homo sapiens, UniProt P07333); assay: Kinase activity assay, Fms
[3] = target: Src (Homo sapiens, UniProt P12931); assay: Kinase activity assay, Src
[4] = target: B-Raf (Homo sapiens, UniProt P15056); assay: Kinase activity assay, B-Raf; format: biochemical; conditions: read-out: activity toward kinase B-Raf, IC50
[5] = target: Kdr (Homo sapiens, UniProt P35968); assay: Kinase activity assay, Kdr
[6] = target: Kit (Homo sapiens, UniProt P10721); assay: Kinase activity assay, Kit
[7] = target: Btk (Homo sapiens, UniProt Q06187); assay: Kinase activity assay, Btk
[8] = target: C-Raf (Homo sapiens, UniProt P04049); assay: Kinase activity assay, C-Raf
[9] = target: MAP4K4 (Homo sapiens, UniProt O95819); assay: Kinase activity assay, MAP4K4

Measured: IC50

Kdr, sequence (P35968 20-1356): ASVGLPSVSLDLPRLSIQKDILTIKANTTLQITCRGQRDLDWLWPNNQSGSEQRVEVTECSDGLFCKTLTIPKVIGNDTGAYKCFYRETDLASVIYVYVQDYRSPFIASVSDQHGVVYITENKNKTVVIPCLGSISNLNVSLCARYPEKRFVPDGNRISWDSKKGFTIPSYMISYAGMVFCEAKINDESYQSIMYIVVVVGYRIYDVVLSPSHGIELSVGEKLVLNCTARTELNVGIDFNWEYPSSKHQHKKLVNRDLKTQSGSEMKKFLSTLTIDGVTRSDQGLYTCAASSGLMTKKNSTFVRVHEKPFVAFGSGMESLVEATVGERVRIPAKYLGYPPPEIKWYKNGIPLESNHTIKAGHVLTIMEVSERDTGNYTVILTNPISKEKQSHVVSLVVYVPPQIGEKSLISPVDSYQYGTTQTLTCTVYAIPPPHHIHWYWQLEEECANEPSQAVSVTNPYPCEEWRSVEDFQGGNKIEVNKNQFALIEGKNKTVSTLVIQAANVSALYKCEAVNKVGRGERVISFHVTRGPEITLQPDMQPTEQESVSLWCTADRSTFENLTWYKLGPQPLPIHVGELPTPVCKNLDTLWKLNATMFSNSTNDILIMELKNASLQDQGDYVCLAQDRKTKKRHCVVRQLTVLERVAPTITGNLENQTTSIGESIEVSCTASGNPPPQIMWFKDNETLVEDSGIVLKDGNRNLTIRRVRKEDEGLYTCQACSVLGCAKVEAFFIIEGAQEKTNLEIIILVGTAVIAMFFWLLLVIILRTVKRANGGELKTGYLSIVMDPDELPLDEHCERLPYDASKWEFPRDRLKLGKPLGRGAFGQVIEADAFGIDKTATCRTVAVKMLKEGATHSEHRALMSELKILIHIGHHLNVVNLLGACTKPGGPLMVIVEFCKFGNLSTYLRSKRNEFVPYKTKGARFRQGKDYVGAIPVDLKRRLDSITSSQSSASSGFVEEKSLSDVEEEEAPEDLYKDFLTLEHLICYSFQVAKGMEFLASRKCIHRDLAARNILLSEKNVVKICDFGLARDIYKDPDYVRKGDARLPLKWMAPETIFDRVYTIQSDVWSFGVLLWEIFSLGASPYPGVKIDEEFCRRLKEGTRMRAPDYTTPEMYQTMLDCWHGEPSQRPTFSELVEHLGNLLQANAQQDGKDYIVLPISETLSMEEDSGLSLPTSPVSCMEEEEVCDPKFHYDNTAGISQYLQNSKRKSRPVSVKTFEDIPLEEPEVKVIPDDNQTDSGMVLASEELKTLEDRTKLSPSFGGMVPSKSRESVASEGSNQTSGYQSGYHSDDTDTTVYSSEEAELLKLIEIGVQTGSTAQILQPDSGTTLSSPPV
C-Raf, sequence (P04049 whole entry): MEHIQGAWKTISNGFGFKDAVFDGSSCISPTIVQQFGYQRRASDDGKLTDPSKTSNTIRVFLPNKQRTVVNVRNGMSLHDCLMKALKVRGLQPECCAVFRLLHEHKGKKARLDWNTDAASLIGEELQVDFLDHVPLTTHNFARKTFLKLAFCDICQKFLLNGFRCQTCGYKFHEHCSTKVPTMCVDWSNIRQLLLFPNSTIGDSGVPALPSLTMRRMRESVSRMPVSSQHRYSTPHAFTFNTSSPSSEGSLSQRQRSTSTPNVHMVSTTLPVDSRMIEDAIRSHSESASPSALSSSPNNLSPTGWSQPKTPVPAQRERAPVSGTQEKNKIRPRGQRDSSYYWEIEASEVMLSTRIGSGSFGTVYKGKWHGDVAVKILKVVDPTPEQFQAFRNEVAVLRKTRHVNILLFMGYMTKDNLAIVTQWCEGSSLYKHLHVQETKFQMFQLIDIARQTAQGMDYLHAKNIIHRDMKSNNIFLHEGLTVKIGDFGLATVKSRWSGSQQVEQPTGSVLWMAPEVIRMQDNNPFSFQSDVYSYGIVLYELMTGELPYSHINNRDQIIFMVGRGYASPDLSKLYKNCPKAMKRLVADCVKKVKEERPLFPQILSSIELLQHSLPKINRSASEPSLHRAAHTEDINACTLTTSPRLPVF
Src, sequence (P12931 whole entry): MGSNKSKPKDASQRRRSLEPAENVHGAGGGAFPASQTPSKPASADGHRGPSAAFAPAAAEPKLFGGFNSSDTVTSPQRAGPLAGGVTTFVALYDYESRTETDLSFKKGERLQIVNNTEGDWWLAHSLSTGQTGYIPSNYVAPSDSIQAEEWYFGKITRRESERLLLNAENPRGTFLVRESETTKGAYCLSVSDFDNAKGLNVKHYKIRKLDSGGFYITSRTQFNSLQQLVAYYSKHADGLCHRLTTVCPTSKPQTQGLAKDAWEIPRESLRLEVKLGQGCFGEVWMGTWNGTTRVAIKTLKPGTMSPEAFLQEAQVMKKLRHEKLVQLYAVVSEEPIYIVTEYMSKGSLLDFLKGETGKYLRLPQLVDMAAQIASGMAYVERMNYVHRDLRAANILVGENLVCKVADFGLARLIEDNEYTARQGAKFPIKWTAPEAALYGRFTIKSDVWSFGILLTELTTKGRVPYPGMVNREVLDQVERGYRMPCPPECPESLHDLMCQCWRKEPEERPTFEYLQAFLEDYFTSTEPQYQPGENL
Btk, sequence (Q06187 whole entry): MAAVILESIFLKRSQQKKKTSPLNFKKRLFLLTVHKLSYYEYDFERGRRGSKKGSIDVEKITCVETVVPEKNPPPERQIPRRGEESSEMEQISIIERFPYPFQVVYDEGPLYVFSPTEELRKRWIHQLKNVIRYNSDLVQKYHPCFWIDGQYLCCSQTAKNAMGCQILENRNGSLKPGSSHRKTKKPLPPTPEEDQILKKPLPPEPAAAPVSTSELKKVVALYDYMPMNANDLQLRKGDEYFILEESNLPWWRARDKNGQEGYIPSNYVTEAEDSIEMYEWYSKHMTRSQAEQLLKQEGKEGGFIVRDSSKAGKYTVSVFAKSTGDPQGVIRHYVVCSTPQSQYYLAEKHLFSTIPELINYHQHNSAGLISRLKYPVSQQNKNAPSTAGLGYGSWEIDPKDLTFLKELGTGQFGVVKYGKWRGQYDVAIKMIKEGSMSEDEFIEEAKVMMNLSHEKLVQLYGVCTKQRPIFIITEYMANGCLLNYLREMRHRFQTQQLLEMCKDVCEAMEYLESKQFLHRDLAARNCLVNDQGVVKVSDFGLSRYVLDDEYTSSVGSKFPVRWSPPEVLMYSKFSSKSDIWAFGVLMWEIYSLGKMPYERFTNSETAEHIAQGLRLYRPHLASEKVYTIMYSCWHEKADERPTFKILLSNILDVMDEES
Kit, sequence (P10721 26-976): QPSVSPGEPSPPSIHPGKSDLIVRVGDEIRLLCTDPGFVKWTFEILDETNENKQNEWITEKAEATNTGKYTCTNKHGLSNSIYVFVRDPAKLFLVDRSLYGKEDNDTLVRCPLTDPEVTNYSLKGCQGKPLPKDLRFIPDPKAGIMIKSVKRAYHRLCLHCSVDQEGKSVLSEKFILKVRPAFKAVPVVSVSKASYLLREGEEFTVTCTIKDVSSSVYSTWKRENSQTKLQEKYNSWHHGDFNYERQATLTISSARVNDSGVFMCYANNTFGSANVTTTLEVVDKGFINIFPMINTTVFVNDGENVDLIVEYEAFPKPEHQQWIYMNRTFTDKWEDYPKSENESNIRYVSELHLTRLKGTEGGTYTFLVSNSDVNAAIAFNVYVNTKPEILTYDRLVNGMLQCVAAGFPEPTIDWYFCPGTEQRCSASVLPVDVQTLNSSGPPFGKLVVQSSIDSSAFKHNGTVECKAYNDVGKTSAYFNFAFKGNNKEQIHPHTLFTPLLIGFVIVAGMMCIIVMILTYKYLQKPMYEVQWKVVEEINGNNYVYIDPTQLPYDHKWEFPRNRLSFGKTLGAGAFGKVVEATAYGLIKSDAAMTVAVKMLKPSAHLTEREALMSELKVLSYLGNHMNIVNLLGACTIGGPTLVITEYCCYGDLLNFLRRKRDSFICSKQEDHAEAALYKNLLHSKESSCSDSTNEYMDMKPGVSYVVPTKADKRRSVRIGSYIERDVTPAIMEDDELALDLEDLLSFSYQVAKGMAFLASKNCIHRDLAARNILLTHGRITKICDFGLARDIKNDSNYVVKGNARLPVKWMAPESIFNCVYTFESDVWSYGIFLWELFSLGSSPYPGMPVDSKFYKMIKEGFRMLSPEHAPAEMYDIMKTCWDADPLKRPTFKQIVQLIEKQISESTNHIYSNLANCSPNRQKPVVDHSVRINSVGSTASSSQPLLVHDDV
B-Raf V600E, sequence (P15056 whole entry V600E): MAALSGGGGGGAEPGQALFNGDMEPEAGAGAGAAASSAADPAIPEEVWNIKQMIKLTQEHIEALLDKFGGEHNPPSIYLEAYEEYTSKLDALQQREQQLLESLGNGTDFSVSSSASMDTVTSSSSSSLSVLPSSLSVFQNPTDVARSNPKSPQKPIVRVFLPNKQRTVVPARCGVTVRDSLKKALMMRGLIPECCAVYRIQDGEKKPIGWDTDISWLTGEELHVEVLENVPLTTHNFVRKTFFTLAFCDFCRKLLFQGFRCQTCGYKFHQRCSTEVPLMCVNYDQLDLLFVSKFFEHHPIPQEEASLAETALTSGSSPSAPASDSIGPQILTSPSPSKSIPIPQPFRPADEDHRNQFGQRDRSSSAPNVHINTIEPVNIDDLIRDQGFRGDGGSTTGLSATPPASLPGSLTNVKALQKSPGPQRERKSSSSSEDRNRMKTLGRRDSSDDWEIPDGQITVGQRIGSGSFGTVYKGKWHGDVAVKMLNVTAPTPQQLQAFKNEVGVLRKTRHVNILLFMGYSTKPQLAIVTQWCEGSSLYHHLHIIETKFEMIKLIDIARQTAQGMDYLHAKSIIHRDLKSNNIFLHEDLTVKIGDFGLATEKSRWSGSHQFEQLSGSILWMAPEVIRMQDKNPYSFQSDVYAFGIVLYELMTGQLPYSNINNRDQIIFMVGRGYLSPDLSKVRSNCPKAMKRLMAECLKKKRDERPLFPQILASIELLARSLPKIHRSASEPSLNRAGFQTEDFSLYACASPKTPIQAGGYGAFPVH
B-Raf, sequence (P15056 whole entry): as the sequence (P15056 whole entry V600E) above, with E600V counted along it

CCCS(=O)(=O)Nc1ccc(F)c(C(=O)c2c[nH]c3ncc(-c4cnn(C)c4)cc23)c1 [P-2431, Propane-1-sulfonic acid {4-fluoro-3-[5-(1-methyl-1H-pyrazol-4-yl)-1H-pyrrolo[2,3-b]pyridine-3-carbonyl]-phenyl}-amide]
not listed: [9]
≤ 10 µM: all other assays above

O=C(c1c(F)ccc(NS(=O)(=O)C2CC2)c1F)c1c[nH]c2ncc(-c3ccc(Cl)cc3)cc12 [P-2350, Cyclopropanesulfonic acid {3-[5-(4-chloro-phenyl)-1H-pyrrolo[2,3-b]pyridine-3-carbonyl]-2,4-difluoro-phenyl}-amide]
not listed: [1] | [4] | [9]
≤ 10 µM: all other assays above

O=C(c1cccc(NS(=O)(=O)C2CCCCC2)c1)c1c[nH]c2ncc(F)cc12 [P-2462, Cyclohexanesulfonic acid [3-(5-fluoro-1H-pyrrolo[2,3-b]pyridine-3-carbonyl)-phenyl]-amide]
≤ 10 µM: [9] | [7]

CCCS(=O)(=O)Nc1ccc(F)c(C(=O)c2c[nH]c3ncc(-c4ccc(OCCCN(C)C)nc4)cc23)c1F [P-2178, Propane-1-sulfonic acid (3-{5-[6-(3-dimethylamino-propoxy)-pyridin-3-yl]-1H-pyrrolo[2,3-b]pyridine-3-carbonyl}-2,4-difluoro-phenyl)-amide]
not listed: [9]
≤ 10 µM: all other assays above

CCCS(=O)(=O)Nc1ccc(F)c(C(=O)c2c[nH]c3ncc(-c4ccc(N(C)C)nc4)cc23)c1F [P-2229, Propane-1-sulfonic acid {3-[5-(6-dimethylamino-pyridin-3-yl)-1H-pyrrolo[2,3-b]pyridine-3-carbonyl]-2,4-difluoro-phenyl}-amide]
not listed: [2]
≤ 10 µM: all other assays above

O=C(c1c(F)ccc(NS(=O)(=O)C2CC2)c1F)c1c[nH]c2ncc(-c3ccc(F)cc3)cc12 [P-2351, Cyclopropanesulfonic acid {2,4-difluoro-3-[5-(4-fluoro-phenyl)-1H-pyrrolo[2,3-b]pyridine-3-carbonyl]-phenyl}-amide]
not listed: [8] | [9]
≤ 10 µM: all other assays above

Cn1cc(-c2cnc3[nH]cc(C(=O)c4cc(NS(=O)(=O)c5cccc(C(F)(F)F)c5)ccc4F)c3c2)cn1 [P-2101, N-{4-Fluoro-3-[5-(1-methyl-1H-pyrazol-4-yl)-1H-pyrrolo[2,3-b]pyridine-3-carbonyl]-phenyl}-3-trifluoromethyl-benzenesulfonamide]
not listed: [9]
≤ 10 µM: all other assays above

Reference: US20120122860A1, “SOLID FORMS OF SULFONAMIDES AND AMINO ACIDS” (Plexxikon, Inc., priority 2009, published 2012)
